According to patent publication US20210127673A1, “HERBICIDES” (SYNGENTA PARTICIPATIONS AG, priority 2016, published 2021):

Legend:
Format in all cases: in vivo
Settings in all cases: evaluated after 13 days
[1] = tested on: Triticum aestivium (TRZAW); experiment: Pre-emergence herbicidal activity, Triticum aestivium; set-up: key: 5=total damage to plant; 0=no damage to plant
How it was run: (§1)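 First, seeds were sown in standard soil and held one day under glasshouse conditions. Next, soil was sprayed with the active ingredient formulated in 50:50 acetone/water plus 0.5% Tween 20. Plants then grew at 24/16 °C day/night with 14 h light and 65% humidity before evaluation after 13 days.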

[2] = tested on: Avena fatua (AVEFA); experiment: Pre-emergence herbicidal activity, Avena fatua; set-up: key: 5=total damage to plant; 0=no damage to plant
How it was run: as §1

[3] = tested on: Alopecurus myosuroides (ALOMY); experiment: Pre-emergence herbicidal activity, Alopecurus myosuroides; set-up: key: 5=total damage to plant; 0=no damage to plant
How it was run: as §1

[4] = tested on: Echinochloa crus-galli (ECHCG); experiment: Pre-emergence herbicidal activity, Echinochloa crus-galli; set-up: key: 5=total damage to plant; 0=no damage to plant
How it was run: as §1

[5] = tested on: Lolium perenne (LOLPE); experiment: Pre-emergence herbicidal activity, Lolium perenne; set-up: key: 5=total damage to plant; 0=no damage to plant
How it was run: as §1

[6] = tested on: Setaria faberi (SETFA); experiment: Pre-emergence herbicidal activity, Setaria faberi; set-up: key: 5=total damage to plant; 0=no damage to plant
How it was run: as §1

[7] = tested on: Triticum aestivium (TRZAW); experiment: Post-emergence herbicidal activity, Triticum aestivium; set-up: key: 5=total damage to plant; 0=no damage to plant
How it was run: (§2)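 Pot-grown plants sprayed 8 days after sowing with compound in acetone/water (50:50) containing 0.5% Tween 20, in a glasshouse at 24/16 °C day/night, 14 h light, 65% humidity. Damage scored 13 days after spraying on a 0–5 scale (5 = total damage, 0 = none).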

[8] = tested on: Avena fatua (AVEFA); experiment: Post-emergence herbicidal activity, Avena fatua
How it was run: as §2

[9] = tested on: Alopecurus myosuroides (ALOMY); experiment: Post-emergence herbicidal activity, Alopecurus myosuroides; set-up: key: 5=total damage to plant; 0=no damage to plant
How it was run: as §2

[10] = tested on: Echinochloa crus-galli (ECHCG); experiment: Post-emergence herbicidal activity, Echinochloa crus-galli; set-up: key: 5=total damage to plant; 0=no damage to plant
How it was run: as §2

[11] = tested on: Lolium perenne (LOLPE); experiment: Post-emergence herbicidal activity, Lolium perenne; set-up: key: 5=total damage to plant; 0=no damage to plant
How it was run: as §2

[12] = tested on: Setaria faberi (SETFA); experiment: Post-emergence herbicidal activity, Setaria faberi; set-up: key: 5=total damage to plant; 0=no damage to plant
How it was run: as §2

Structure (SMILES)	Control of TRAZW after pre-emergence application (score 0-5) ([1]; 250 g/ha)	Control of AVEFA after pre-emergence application (score 0-5) ([2]; 250 g/ha)	Control of ALOMY after pre-emergence application (score 0-5) ([3]; 250 g/ha)	Control of ECHCG after pre-emergence application (score 0-5) ([4]; 250 g/ha)	Control of LOLPE after pre-emergence application (score 0-5) ([5]; 250 g/ha)	Control of SETFA after pre-emergence application (score 0-5) ([6]; 250 g/ha)	Control of TRAZW after post-emergence application (score 0-5) ([7]; 250 g/ha)	Control of AVEFA after post-emergence application (score 0-5) ([8]; 250 g/ha)	Control of ALOMY after post-emergence application (score 0-5) ([9]; 250 g/ha)	Control of ECHCG after post-emergence application (score 0-5) ([10]; 250 g/ha)	Control of LOLPE after post-emergence application (score 0-5) ([11]; 250 g/ha)	Control of SETFA after post-emergence application (score 0-5) ([12]; 250 g/ha)	Control of TRAZW after pre-emergence application (score 0-5) ([1]; 1000 g/ha)	Control of AVEFA after pre-emergence application (score 0-5) ([2]; 1000 g/ha)	Control of ALOMY after pre-emergence application (score 0-5) ([3]; 1000 g/ha)	Control of ECHCG after pre-emergence application (score 0-5) ([4]; 1000 g/ha)	Control of LOLPE after pre-emergence application (score 0-5) ([5]; 1000 g/ha)	Control of SETFA after pre-emergence application (score 0-5) ([6]; 1000 g/ha)	Control of TRAZW after post-emergence application (score 0-5) ([7]; 1000 g/ha)	Control of AVEFA after post-emergence application (score 0-5) ([8]; 1000 g/ha)	further results
O=C(NCc1cccnc1)Nc1ccc(-c2cncc(F)c2)nc1C(F)(F)F [Compound B97]	0	0	0	0	0	0	0	2	0	1	1	1									
CSCCCNC(=O)Nc1ccc(-c2cncc(F)c2)nc1C(F)(F)F [Compound B98]	0	1	0	1	1	4	0	3	0	2	0	5									
C#CC(C)(C)NC(=O)Nc1ccc(-c2cncc(F)c2)nc1C(F)(F)F [Compound B102]													0	3	0	4	2	5	1	4	Control of ALOMY after post-emergence application (score 0-5) ([9]; 1000 g/ha): 1; Control of ECHCG after post-emergence application (score 0-5) ([10]; 1000 g/ha): 5; Control of LOLPE after post-emergence application (score 0-5) ([11]; 1000 g/ha): 3; Control of SETFA after post-emergence application (score 0-5) ([12]; 1000 g/ha): 5
O=C(NCC1CC1)Nc1ccc(-c2cncc(F)c2)nc1C(F)(F)F [Compound B104]	0	0	0	2	1	5	0	3	1	3	1	5									
O=C(Nc1ccc(-c2cncc(F)c2)nc1C(F)(F)F)OCc1ccc(Cl)cc1 [Compound B105]													0	1	0	2	1	5	0	3	Control of ALOMY after post-emergence application (score 0-5) ([9]; 1000 g/ha): 0; Control of ECHCG after post-emergence application (score 0-5) ([10]; 1000 g/ha): 4; Control of LOLPE after post-emergence application (score 0-5) ([11]; 1000 g/ha): 1; Control of SETFA after post-emergence application (score 0-5) ([12]; 1000 g/ha): 5
CCCCNC(=O)Nc1ccc(-c2cncc(F)c2)nc1C(F)(F)F [Compound B106]	0	1	0	1	1	5	0	3	0	3	1	5									
CC(C)(C)CNC(=O)Nc1ccc(-c2cncc(F)c2)nc1C(F)(F)F [Compound B107]	1	1	1	3	3	4	0	3	0	3	1	5									
O=C(Nc1ccc(-c2cncc(F)c2)nc1C(F)(F)F)OC1CCCCC1 [Compound B108]													0	2	0	3	2	5	0	3	Control of ALOMY after post-emergence application (score 0-5) ([9]; 1000 g/ha): 0; Control of ECHCG after post-emergence application (score 0-5) ([10]; 1000 g/ha): 0; Control of LOLPE after post-emergence application (score 0-5) ([11]; 1000 g/ha): 1; Control of SETFA after post-emergence application (score 0-5) ([12]; 1000 g/ha): 5
COc1nc(-c2cncc(F)c2)ccc1N(C(=O)OC(C)(C)C)C(=O)OC(C)(C)C [Compound B109]													0	1	0	0	0	3	0	1	Control of ALOMY after post-emergence application (score 0-5) ([9]; 1000 g/ha): 0; Control of ECHCG after post-emergence application (score 0-5) ([10]; 1000 g/ha): 1; Control of LOLPE after post-emergence application (score 0-5) ([11]; 1000 g/ha): 0; Control of SETFA after post-emergence application (score 0-5) ([12]; 1000 g/ha): 1
O=C(NOCC(F)F)Nc1ccc(-c2cncc(F)c2)nc1C(F)(F)F [Compound B110]													0	0	0	3	0	4	0	3	Control of ALOMY after post-emergence application (score 0-5) ([9]; 1000 g/ha): 0; Control of ECHCG after post-emergence application (score 0-5) ([10]; 1000 g/ha): 3; Control of LOLPE after post-emergence application (score 0-5) ([11]; 1000 g/ha): 1; Control of SETFA after post-emergence application (score 0-5) ([12]; 1000 g/ha): 4
